Entries after “also recorded” stand apart in the source; their conditions may differ.
Tested on: ADAM12+ CAFs
Assay: Depletion of ADAM12+ CAFs by diphtheria toxin in M12-DTR mice bearing murine melanoma (MO5)
Type: in vivo, mouse
[1] = M12-DTR+DT vs tumors with normal stroma, melanoma

diphtheria toxin [DT]
depletion of ADAM12+ CAFs (M12-DTR mice, DT ip starting at day 9 or 10 after melanoma cell inoculation): specifically depleted
density of CD31+ vessels inside the tumors (M12-DTR+DT vs control (DTR negative) mice, melanoma, immunofluorescence, two or three weeks after inoculation): higher density
tumor perfusion (positive area of Hoechst 33342 staining) (M12-DTR+DT vs control mice, melanoma, Hoechst 33342 iv): increased perfusion
activation of CD31+ vessels (ICAM1+) (M12-DTR+DT vs control mice, melanoma, immunofluorescence): activated ICAM1+ phenotype
tumor growth (M12-DTR+DT vs mice with normal tumor stroma, murine melanoma model): significantly delayed; also recorded: decrease in tumor growth
frequency of CD3+ T cells in tumor [1]: significantly higher frequency; also recorded: higher T cells (CD3+) infiltration
percentage of myeloid-derived suppressor cells (MDSC) and T-regulator cells (Tregs) [1]: remained unchanged
ratio of M1/M2 macrophages [1]: increased ratio
location of CD3+ T cells in tumor (M12-DTR+DT vs tumors with normal stroma, melanoma, histology): recruited to the core of the tumor

Reference: patent US11780934B2, “Use of inhibitors of ADAM12 as adjuvants in tumor therapies” (INSTITUT PASTEUR, priority 2016, dated 2023)
